26 molecules from US7504513B2, “Thiazolyl-benzimidazoles” (Hoffman-La Roche Inc., priority 2006, dated 2009) can be followed below.

In this assay the target is T1, GST-Plk1 (Homo sapiens, UniProt P53350).
T1 construct: Full-length, active GST-Plk1 was purified from Sf9 insect cells; made in house; host or cells: Sf9 insect cells
Briefly: Biochemical Characterization Assay: HTRF kinase assay, GST-Plk1 phosphorylation of GST-p53. To be noted: full-length active GST-Plk1, GST-p53 substrate, ATP, 37° C. for 35 minutes, HTRF signal. The procedure: Full-length, active GST-Plk1 was purified from Sf9 insect cells, and full-length GST-p53 was purified in E. coli. Anti-phospho p53 antibody was purchased from Cell Signaling Technology. Europium-conjugated anti-rabbit antibody was purchased from PerkinElmer Life and Analytical Sciences. APC-conjugated anti-GST antibody was purchased from Prozyme.
To two microliters of compound (0.6 nM-4 mM) in DMSO or plain DMSO for control wells, 38 microliters of 20 mM HEPES pH 7, 50 mM NaCl, 10 mM MgCl2, 0.5 mM TCEP, 0.1 mM sodium orthovanadate, 0.1 mg/ml BSA, and 0.05% Triton X-100 (Kinase Assay Buffer) were added. Eight microliters of the compound solution were added to a 384-well black microtiter plate, followed by six microliters of GST-p53 (17 ug/ml) and ATP (333 uM) in Kinase Assay Buffer. Six microliters of GST-Plk1 (3 ug/ml) in Kinase Assay Buffer were then added and the solution incubated at 37° C. for 35 minutes. Six microliters of solution containing 43 mM EDTA to stop the reaction and a 1:600 dilution of anti-phospho-p53 antibody in 20 mM HEPES pH 7, 50 mM NaCl, and 0.5 mg/ml BSA (Antibody Binding Buffer) were added and the solution incubated at 37° C. for 30 minutes. Six microliters of solution containing 9 nM europium-conjugated anti-rabbit antibody and 120 nM APC-conjugated anti-GST antibody in Antibody Binding Buffer were then added and the mixture incubated at room temperature for 1.5 hours. The HTRF signal was read on the Envision reader (PerkinElmer Life and Analytical Sciences).
A general note: Time-resolved FRET reads energy transfer from a long-lived donor to a nearby acceptor.

T1 sequence (P53350 whole entry): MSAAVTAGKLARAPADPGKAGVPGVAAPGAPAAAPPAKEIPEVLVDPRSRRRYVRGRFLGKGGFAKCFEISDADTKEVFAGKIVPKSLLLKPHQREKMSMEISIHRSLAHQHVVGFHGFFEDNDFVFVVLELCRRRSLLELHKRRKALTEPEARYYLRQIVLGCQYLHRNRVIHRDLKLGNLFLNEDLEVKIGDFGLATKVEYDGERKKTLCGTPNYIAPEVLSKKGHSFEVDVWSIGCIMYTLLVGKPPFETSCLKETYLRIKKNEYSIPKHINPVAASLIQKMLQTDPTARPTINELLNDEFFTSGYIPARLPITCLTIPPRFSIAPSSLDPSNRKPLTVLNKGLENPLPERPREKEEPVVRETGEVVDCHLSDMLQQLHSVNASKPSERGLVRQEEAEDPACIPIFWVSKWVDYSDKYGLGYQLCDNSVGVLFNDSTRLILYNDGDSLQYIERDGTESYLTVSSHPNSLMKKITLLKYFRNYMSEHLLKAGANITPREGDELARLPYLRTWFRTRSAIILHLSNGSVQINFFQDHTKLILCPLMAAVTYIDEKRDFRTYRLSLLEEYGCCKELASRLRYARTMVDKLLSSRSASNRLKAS

Regarding “2-(5-Methoxy-benzoimidazol-1-yl)-4-phe-nyl-thiazole-5-car-boxylic acid; compoundwith 2-(6-methoxy-benzoimidazol-1-yl)-4-phenyl-thiazole-5-carboxylic acid [Example 15]”, half-maximal inhibition (IC50) was put at 226 nM. This counts as sub-micromolar.

As to “2-[5-(2-Methoxy-ethoxy)-benzo-imidazol-1-yl]-4-phenyl-thiazole-5-carboxylic acid;compound with 2-[6-(2-meth-oxy-ethoxy)-benzo-imidazol-1-yl]-4-phenyl-thiazole-5-carboxylic acid [Example 63]”, the IC50 stood at 526 nM. `COc1cc2ncn(-c3nc(-c4cccc(F)c4)c(C(=O)O)s3)c2cc1OC` [Example 17, 2-(5,6-Dimethoxy-benzoimidazol-1-yl)-4-(3-fluoro-phenyl)-thiazole-5-carboxylic acid] showed a half-maximal inhibitory concentration (IC50) of 69 nM. The result for `COc1ccc(-c2nc(-n3cnc4cc(OC)c(OC)cc43)sc2C(=O)O)cc1` [Example 28, 2-(5,6-Dimethoxy-benzoimidazol-1-yl)-4-(4-methoxy-phenyl)-thiazole-5-carboxylic acid] reads 856 nM; that for `COc1cc2ncn(-c3nc(-c4ccccc4C)c(C(=O)O)s3)c2cc1OC` [Example 27, 2-(5,6-Dimethoxy-benzoimidazol-1-yl)-4-o-tolyl-thiazole-5-carboxylic acid], 1620 nM. The result for “2-(5-Methoxy-6-methylbenzoimidazol-1-yl)-4-phenylthiazole-5-carboxylic acid and 2-(6-methoxy-5-methylbenzoimidazol-1-yl)-4-phenylthiazole-5-carboxylic acid [Example 59]” reads 826 nM; that for `COc1cc2ncn(-c3nc(-c4cccc(Cl)c4)c(C(=O)O)s3)c2cc1OC` [Example 31, 4-(3-Chloro-phenyl)-2-(5,6-dimethoxy-benzoimidazol-1-yl)-thiazole-5-carboxylic acid], 25 nM; that for `COc1cc2ncn(-c3nc(-c4cccc(Cl)c4)c(C(=O)NNC(=O)c4cccs4)s3)c2cc1OC` [Example 53, Thiophene-2-carboxylic acid N′-[4-(3-chloro-phenyl)-2-(5,6-dimethoxybenzoimidazol-1-yl)-thiazole-5-carbonyl]-hydrazide], 18 nM.

In turn, `COc1cccc(-c2nc(-n3cnc4cc(OC)c(OC)cc43)sc2C(=O)O)c1` [Example 20, 2-(5,6-Dimethoxy-benzoimidazol-1-yl)-4-(3-methoxy-phenyl)-thiazole-5-carboxylic acid] returned an IC50 of 127 nM. Against the preceding molecule, the IC50 is about 7.1-fold higher. In the case of `COc1cc2ncn(-c3nc(-c4cccc(C(=O)N(C)C)c4)c(C(=O)O)s3)c2cc1OC` [Example 52, 2-(5,6-Dimethoxy-benzoimidazol-1-yl)-4-(3-dimethylcarbamoyl-phenyl)-thiazole-5-carboxylic acid] it was 8870 nM; in that of `COc1cc2ncn(-c3nc(-c4ccccc4)c(-c4nnn[nH]4)s3)c2cc1OC` [Example 12, 5,6-Dimethoxy-1-[4-phenyl-5-(1H-tetrazol-5-yl)-thiazol-2-yl]-1H-benzoimidazole], 1100 nM.

For the molecule `O=C(O)c1sc(-n2cnc3ccccc32)nc1-c1ccccc1` [Example 2, 2-(Benzoimidazol-1-yl)-4-phenylthiazole-5-carboxylic acid], the half-inhibitory concentration (IC50) stood at 772 nM. This IC50 and that of the molecule before are within 1.5-fold of each other. The result for “2-(8H-5,7-Dioxa-1,3-diaza-cyclopenta[b]naphthalen-3-yl)-4-phenyl-thiazole-5-carboxylic acid and 2-(8H-5,7-Dioxa-1,3-diaza-cyclopenta[b]naphthalen-1-yl)-4-phenyl-thiazole-5-carboxylic acid [Example 9]” reads 2620 nM; that for `COc1cc2ncn(-c3nc(-c4cccc(Cl)c4)c(C(=O)Nn4cnnc4)s3)c2cc1OC` [Example 57, 4-(3-Chloro-phenyl)-2-(5,6-dimethoxy-benzoimidazol-1-yl)-thiazole-5-carboxylic acid [1,2,4]triazol-4-ylamide], 344 nM; that for `COc1cc2ncn(-c3nc(-c4cccc(C(C)C)c4)c(C(=O)O)s3)c2cc1OC` [Example 24, 2-(5,6-Dimethoxy-benzoimidazol-1-yl)-4-(3-isopropyl-phenyl)-thiazole-5-carboxylic acid], 68 nM. The result for `COc1cc2ncn(-c3nc(-c4cccnc4)c(C(=O)O)s3)c2cc1OC` [Example 33, 2-(5,6-Dimethoxy-benzoimidazol-1-yl)-4-pyridin-3-yl-thiazole-5-carboxylic acid] reads 4410 nM; that for `COc1cc2ncn(-c3nc(-c4cccc(Cl)c4)c(C(N)=O)s3)c2cc1OC` [Example 36, 4-(3-Chloro-phenyl)-2-(5,6-dimethoxy-benzoimidazol-1-yl)-thiazole-5-carboxylic acid amide], 431 nM. The result for “2-(5-Hydroxy-benzoimidazol-1-yl)-4-phe-nyl-thiazole-5-car-boxylic acid; compoundwith 2-(6-hydroxy-benzoimidazol-1-yl)-4-phenyl-thiazole-5-carboxylic acid [Example 65]” reads 388 nM; that for `COc1cc2ncn(-c3nc(-c4ccc5c(ccn5C)c4)c(C(=O)O)s3)c2cc1OC` [Example 46, 2-(5,6-Dimethoxy-benzoimidazol-1-yl)-4-(1-methyl-1H-indol-5-yl)-thiazole-5-carboxylic acid], 368 nM; that for `COc1cc2ncn(-c3nc(-c4cccc(Cl)c4)c(C(=O)Nc4ccncn4)s3)c2cc1OC` [Example 54, 4-(3-Chloro-phenyl)-2-(5,6-dimethoxy-benzoimidazol-1-yl)-thiazole-5-carboxylic acid pyrimidin-4-ylamide], 47 nM. `COc1cc2ncn(-c3nc(-c4cccc(Br)c4)c(C(=O)O)s3)c2cc1OC` [Example 42, 4-(3-Bromo-phenyl)-2-(5,6-dimethoxy-benzoimidazol-1-yl)-thiazole-5-carboxylic acid] gave a concentration for half-maximal inhibition (IC50) of 40 nM.

As for `COc1cc2ncn(-c3nc(-c4cccc(O)c4)c(C(=O)O)s3)c2cc1OC` [Example 34, 2-(5,6-Dimethoxy-benzoimidazol-1-yl)-4-(3-hydroxy-phenyl)-thiazole-5-carboxylic acid], the half-inhibitory concentration (IC50) was found to be 211 nM.

Regarding `CCNC(=O)c1sc(-n2cnc3cc(OC)c(OC)cc32)nc1-c1ccccc1` [Example 11, 2-(5,6-Dimethoxy-benzoimidazol-1-yl)-4-phenyl-thiazole-5-carboxylic acid ethylamide], inhibition was half-maximal at 916 nM (IC50). In the case of `COc1cc2ncn(-c3nc(-c4ccccc4)c(C(=O)NC4CC4)s3)c2cc1OC` [Example 13, 2-(5,6-Dimethoxy-benzoimidazol-1-yl)-4-phenyl-thiazole-5-carboxylic acid cyclopropylamide] it was 3310 nM; in that of `COc1cc2ncn(-c3nc(-c4ccnc(Cl)c4)c(C(=O)O)s3)c2cc1OC` [Example 64, 4-(2-Chloro-pyridin-4-yl)-2-(5,6-dimethoxy-benzoimidazol-1-yl)-thiazole-5-carboxylic acid], 75 nM. For `COc1cc2ncn(-c3nc(-c4cccc(Cl)c4)c(C(=O)Nc4nccs4)s3)c2cc1OC` [Example 56, 4-(3-Chloro-phenyl)-2-(5,6-dimethoxy-benzoimidazol-1-yl)-thiazole-5-carboxylic acid thiazol-2-ylamide], the IC50 is 252 nM.

As a reminder, the IC50 is the midpoint of a concentration-inhibition curve. Lower therefore signals greater potency.
